In one experiment the test system is HeLa cells. The experiment in a line: Proliferation assay (crystal violet), HeLa. The format is cell-based. To be noted: Homo sapiens, 96 h, 4 days, read-out: Inhibition of HeLa cell proliferation IC50. Here is the method: (§1) Cultivated tumour cells (HeLa, human cervical tumour cells, ATCC CCL-2; NCI-H460, human non-small cell lung carcinoma cells, ATCC HTB-177; A2780, human ovarian carcinoma cells, ECACC #93112519; DU 145, hormone-independent human prostate carcinoma cells, ATCC HTB-81; HeLa-MaTu-ADR, multidrug-resistant human cervical carcinoma cells, EPO-GmbH Berlin; Caco-2, human colorectal carcinoma cells, ATCC HTB-37; B 16F10, mouse melanoma cells, ATCC CRL-6475) were plated at a density of 5,000 cells/well (DU145, HeLa-MaTu-ADR), 3,000 cells/well (NCI-H460, HeLa), 2,500 cells/well (A2780), 1,500 cells/well (Caco-2), or 1,000 cells/well (B16F10) in a 96-well multititer plate in 200 μL of their respective growth medium supplemented 10% fetal calf serum. After 24 hours, the cells of one plate (zero-point plate) were stained with crystal violet (see below), while the medium of the other plates was replaced by fresh culture medium (200 to which the test substances were added in various concentrations (0 μM, as well as in the range of 0.001-10 μM; the final concentration of the solvent dimethyl sulfoxide was 0.5%). The cells were incubated for 4 days in the presence of test substances. Cell proliferation was determined by staining the cells with crystal violet: the cells were fixed by adding 20 μl/measuring point of an 11% glutaric aldehyde solution for 15 minutes at room temperature. After three washing cycles of the fixed cells with water, the plates were dried at room temperature. The cells were stained by adding 100 μl/measuring point of a 0.1% crystal violet solution (pH 3.0). After three washing cycles of the stained cells with water, the plates were dried at room temperature. The dye was dissolved by adding 100 μl/measuring point of a 10% acetic acid solution. The extinction was determined by photometry at a wavelength of 595 nm. The change of cell number, in percent, was calculated by normalization of the measured values to the extinction values of the zero-point plate (=0%) and the extinction of the untreated (0 μm) cells (=100%). The IC50 values (inhibitory concentration at 50% of maximal effect) were determined by means of a 4 parameter fit.

A further experiment concerns the target T1, CDK9/CycT1 (Homo sapiens, UniProt P50750).
T1 construct: Recombinant full-length His-tagged human CDK9 and CycT1; His; purchased Invitrogen PV4131; host or cells: insect cells
Kind of experiment: CDK9/CycT1 high ATP kinase assay (TR-FRET, Method 1b). To be noted: 2 mM ATP. The format is biochemical. Here is the method: 1b. CDK9/CyeT1 High ATP Kinase Assay
CDK9/CycT1-inhibitory activity of compounds of the present invention at a high ATP concentration after preincubation of enzyme and test compounds was quantified employing the CDK9/CycT1 TR-FRET assay as described in the following paragraphs.
Recombinant full-length His-tagged human CDK9 and CycT1, expressed in insect cells and purified by Ni-NTA affinity chromatography, were purchase from Invitrogen (Cat. No PV4131). As substrate for the kinase reaction biotinylated peptide biotin-Ttds-YISPLKSPYKISEG (C-terminus in amid form) was used which can be purchased e.g. form the company JERINI peptide technologies (Berlin, Germany).
For the assay 50 nl of a 100 fold concentrated solution of the test compound in DMSO was pipetted into a black low volume 384 well microtiter plate (Greiner Bio-One, Frickenhausen, Germany), 2 μl of a solution of CDK9/CycT1 in aqueous assay buffer [50 mM Tris/HCl pH 8.0, 10 mM MgCl2, 1.0 mM dithiothreitol, 0.1 mM sodium ortho-vanadate, 0.01% (v/v) Nonidet-P40 (Sigma)] were added and the mixture was incubated for […] at 22° C. to allow pre-binding of the test compounds to the enzyme before the start of the kinase reaction. Then the kinase reaction was started by the addition of 3 μl of a solution of adenosine-tri-phosphate (ATP, 3.3 mM=>final conc. in the 5 μl assay volume is 2 mM) and substrate (1.67 μM=>final conc. in the 5 μl assay volume is 1 μM) in assay buffer and the resulting mixture was incubated for a reaction time of […] at 22° C. The concentration of CDK9/CycT1 was adjusted depending of the activity of the enzyme lot and was chosen appropriate to have the assay in the linear range, typical concentrations were in the range of 0.5 ng/ml. The reaction was stopped by the addition of 5 μl of a solution of TR-FRET detection reagents ([…] streptavidine-XL665 [Cisbio Bioassays, Codolet, France] and 1 nM anti-RB(pSer807/pSer811)-antibody from BD Pharmingen [#558389] and 1.2 nM LANCE EU-W1024 labeled anti-mouse IgG antibody [Perkin-Elmer, product no. AD0077]) in an aqueous EDTA-solution (100 mM EDTA, 0.2% (w/v) bovine serum albumin in 100 mM HEPES/NaOH pH 7.0).
The resulting mixture was incubated 1 h at 22° C. to allow the formation of complex between the phosphorylated biotinylated peptide and the detection reagents. Subsequently the amount of phosphorylated substrate was evaluated by measurement of the resonance energy transfer from the Eu-chelate to the streptavidine-XL. Therefore, the fluorescence emissions at 620 nm and 665 nm after excitation at 350 nm was measured in a HTRF reader, e.g. a Rubystar (BMG Labtechnologies, Offenburg, Germany) or a Viewlux (Perkin-Elmer). The ratio of the emissions at 665 nm and at […] was taken as the measure for the amount of phosphorylated substrate. The data were normalised (enzyme reaction without inhibitor=0% inhibition, all other assay components but no enzyme=100% inhibition).
A general note: TR-FRET usually uses a lanthanide donor and a delayed reading to cut background.

The test system of the next experiment is B16F10 cells. Kind of experiment: Proliferation assay (crystal violet), B16F10. The settings on record: Mus musculus, B16-F10, 96 h; B16F10, 4 days; read-out: Inhibition of B16F10 cell proliferation IC50. The format is cell-based. As to the method:
as §1, with “After three washing cycles of the fixed cells with water, the plates were dried at room temperature. The cells were stained by adding 100 μl/measuring point of a 0.1% crystal violet solution (pH 3.0). After three washing cycles of the stained cells with water, the plates were dried at room temperature. The dye was dissolved by adding 100 μl/measuring point of a 10% acetic acid solution. The extinction was determined by photometry at a wavelength of 595 nm. The change of cell number, in percent, was calculated by normalization of the measured values to the extinction values of the zero-point plate (=0%) and the extinction of the untreated (0 μm) cells (=100%). The IC50 values (inhibitory concentration at 50% of maximal effect) were determined by means of a 4 parameter fit.” left out

The next experiment concerns Caco-2 cells. Kind of experiment: Proliferation assay (crystal violet), Caco-2. The format is cell-based. The settings on record: Homo sapiens, 96 h; Caco-2, 4 days; read-out: Inhibition of Caco-2 cell proliferation IC50. As to the method:
as §1, with “After three washing cycles of the fixed cells with water, the plates were dried at room temperature. The cells were stained by adding 100 μl/measuring point of a 0.1% crystal violet solution (pH 3.0). After three washing cycles of the stained cells with water, the plates were dried at room temperature. The dye was dissolved by adding 100 μl/measuring point of a 10% acetic acid solution. The extinction was determined by photometry at a wavelength of 595 nm. The change of cell number, in percent, was calculated by normalization of the measured values to the extinction values of the zero-point plate (=0%) and the extinction of the untreated (0 μm) cells (=100%). The IC50 values (inhibitory concentration at 50% of maximal effect) were determined by means of a 4 parameter fit.” left out

The test system of a further experiment is DU145 cells. Kind of experiment: Proliferation assay (crystal violet), DU145. The settings on record: Homo sapiens, DU-145, 96 h; DU145, 4 days; read-out: Inhibition of DU145 cell proliferation IC50. It is filed as cell-based. Here is the method:
as §1, with “After three washing cycles of the fixed cells with water, the plates were dried at room temperature. The cells were stained by adding 100 μl/measuring point of a 0.1% crystal violet solution (pH 3.0). After three washing cycles of the stained cells with water, the plates were dried at room temperature. The dye was dissolved by adding 100 μl/measuring point of a 10% acetic acid solution. The extinction was determined by photometry at a wavelength of 595 nm. The change of cell number, in percent, was calculated by normalization of the measured values to the extinction values of the zero-point plate (=0%) and the extinction of the untreated (0 μm) cells (=100%). The IC50 values (inhibitory concentration at 50% of maximal effect) were determined by means of a 4 parameter fit.” left out

The test system of another experiment is HeLa-MaTu-ADR cells. The experiment in a line: Proliferation assay (crystal violet), HeLa-MaTu-ADR. It is filed as cell-based. To be noted: Homo sapiens, 96 h, 4 days, read-out: Inhibition of HeLa-MaTu-ADR cell proliferation IC50. Here is the method:
as §1, with “After three washing cycles of the fixed cells with water, the plates were dried at room temperature. The cells were stained by adding 100 μl/measuring point of a 0.1% crystal violet solution (pH 3.0). After three washing cycles of the stained cells with water, the plates were dried at room temperature. The dye was dissolved by adding 100 μl/measuring point of a 10% acetic acid solution. The extinction was determined by photometry at a wavelength of 595 nm. The change of cell number, in percent, was calculated by normalization of the measured values to the extinction values of the zero-point plate (=0%) and the extinction of the untreated (0 μm) cells (=100%). The IC50 values (inhibitory concentration at 50% of maximal effect) were determined by means of a 4 parameter fit.” left out

The subject of a further experiment is NCI-H460 cells. The experiment in a line: Proliferation assay (crystal violet), NCI-H460. It is filed as cell-based. The settings on record: Homo sapiens, 96 h; NCI-H460, 4 days; read-out: Inhibition of H460 cell proliferation IC50. Here is the method:
as §1, with “After three washing cycles of the fixed cells with water, the plates were dried at room temperature. The cells were stained by adding 100 μl/measuring point of a 0.1% crystal violet solution (pH 3.0). After three washing cycles of the stained cells with water, the plates were dried at room temperature. The dye was dissolved by adding 100 μl/measuring point of a 10% acetic acid solution. The extinction was determined by photometry at a wavelength of 595 nm. The change of cell number, in percent, was calculated by normalization of the measured values to the extinction values of the zero-point plate (=0%) and the extinction of the untreated (0 μm) cells (=100%). The IC50 values (inhibitory concentration at 50% of maximal effect) were determined by means of a 4 parameter fit.” left out

Drawing on patent US20150259300A1, “4-(ORTHO)-FLUOROPHENYL-5-FLUOROPYRIMIDIN-2-YL AMINES CONTAINING A SULFONE GROUP” (BAYER PHARMA AKTIENGESELLSCHAFT, priority 2012, published 2015), this text covers IC50 for 11 molecules.

Each structure is given as a SMILES string. Where only a bound is given, the exact number is not on record here.

T1 sequence (P50750 whole entry): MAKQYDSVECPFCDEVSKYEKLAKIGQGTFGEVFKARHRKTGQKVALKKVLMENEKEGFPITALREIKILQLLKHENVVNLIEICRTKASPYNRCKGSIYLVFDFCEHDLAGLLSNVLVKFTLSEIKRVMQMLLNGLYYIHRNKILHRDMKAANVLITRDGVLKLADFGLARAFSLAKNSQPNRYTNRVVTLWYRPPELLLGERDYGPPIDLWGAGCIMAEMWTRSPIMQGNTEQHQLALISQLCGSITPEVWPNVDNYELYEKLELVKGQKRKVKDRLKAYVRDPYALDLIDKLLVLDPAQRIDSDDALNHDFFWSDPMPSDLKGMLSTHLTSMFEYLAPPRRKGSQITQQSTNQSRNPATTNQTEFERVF
T1 sequence (O60563 whole entry partner): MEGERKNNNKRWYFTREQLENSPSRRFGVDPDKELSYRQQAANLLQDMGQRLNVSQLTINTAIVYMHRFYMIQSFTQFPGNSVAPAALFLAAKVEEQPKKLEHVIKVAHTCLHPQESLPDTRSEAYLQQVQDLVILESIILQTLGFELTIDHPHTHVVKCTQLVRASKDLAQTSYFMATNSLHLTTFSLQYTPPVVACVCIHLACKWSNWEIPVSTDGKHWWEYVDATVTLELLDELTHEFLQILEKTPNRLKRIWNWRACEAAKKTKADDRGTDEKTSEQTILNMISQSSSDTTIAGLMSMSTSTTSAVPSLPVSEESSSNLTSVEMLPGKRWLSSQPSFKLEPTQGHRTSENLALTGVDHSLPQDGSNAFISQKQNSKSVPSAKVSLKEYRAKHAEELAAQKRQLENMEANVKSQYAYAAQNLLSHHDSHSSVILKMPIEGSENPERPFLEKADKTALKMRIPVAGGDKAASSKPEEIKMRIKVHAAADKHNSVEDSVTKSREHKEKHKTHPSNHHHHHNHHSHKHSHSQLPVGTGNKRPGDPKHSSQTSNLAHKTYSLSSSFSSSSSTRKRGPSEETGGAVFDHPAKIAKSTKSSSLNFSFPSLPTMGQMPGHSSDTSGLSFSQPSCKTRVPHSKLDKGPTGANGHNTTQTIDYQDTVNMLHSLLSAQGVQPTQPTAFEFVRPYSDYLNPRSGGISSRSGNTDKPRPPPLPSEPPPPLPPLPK

Consider `CCCS(=O)(=O)Cc1cc(F)cc(Nc2ncc(F)c(-c3ccc(F)cc3F)n2)c1` [Example 13, 4-(2,4-Difluorophenyl)-5-fluoro-N-{3-fluoro-5-[(propylsulfonyl)methyl]phenyl}pyrimidin-2-amine], for which the IC50 with HeLa cells stood at 3000 nM; at CDK9/CycT1, 2280 nM.

With `O=S(=O)(Cc1cccc(Nc2ncc(F)c(-c3ccc(F)cc3F)n2)c1)C1CC1` [Example 9, N-{3-[(Cyclopropylsulfonyl)methyl]phenyl}-4-(2,4-difluorophenyl)-5-fluoropyrimidin-2-amine], the IC50 in the experiment with HeLa cells was determined as 3000 nM; at CDK9/CycT1, 330 nM.

With `CC(C)(C)S(=O)(=O)Cc1cccc(Nc2ncc(F)c(-c3ccc(F)cc3F)n2)c1` [Example 3, N-{3-[(tert-Butylsulfonyl)methyl]phenyl}-4-(2,4-difluorophenyl)-5-fluoropyrimidin-2-amine], the results for the IC50 with HeLa cells and on CDK9/CycT1 were 3000 nM and 14500 nM, respectively.

Consider `CC(C)S(=O)(=O)Cc1cccc(Nc2ncc(F)c(-c3ccc(F)cc3F)n2)c1` [Example 2, 4-(2,4-Difluorophenyl)-5-fluoro-N-{3-[(propan-2-ylsulfonyl)methyl]phenyl}pyrimidin-2-amine], for which the IC50 was 3000 nM in the experiment on HeLa cells and 2260 nM on CDK9/CycT1.

Consider `COCCS(=O)(=O)Cc1cccc(Nc2ncc(F)c(-c3ccc(F)cc3F)n2)c1` [Example 4, 4-(2,4-Difluorophenyl)-5-fluoro-N-(3-{[(2-methoxyethyl)sulfonyl]methyl}phenyl)pyrimidin-2-amine], for which the IC50 against CDK9/CycT1 came out at 2260 nM.

For the molecule `CS(=O)(=O)Cc1cc(F)cc(Nc2ncc(F)c(-c3cc(F)c(F)cc3F)n2)c1` [Example 11, 5-Fluoro-N-{3-fluoro-5-[(methylsulfonyl)methyl]phenyl}-4-(2,4,5-trifluorophenyl)pyrimidin-2-amine], the figures for the IC50 in the experiment with HeLa cells and on CDK9/CycT1 were 2960 nM and more than 20000 nM, respectively.

With `CS(=O)(=O)Cc1cc(F)cc(Nc2ncc(F)c(-c3ccc(F)c(F)c3F)n2)c1` [Example 12, 5-fluoro-N-{3-fluoro-5-[(methylsulfonyl)methyl]phenyl}-4-(2,3,4-trifluorophenyl)pyrimidin-2-amine], the IC50 amounted to 1000 nM in the experiment on HeLa cells and 271 nM against CDK9/CycT1.

As for `CS(=O)(=O)Cc1cc(F)cc(Nc2ncc(F)c(-c3ccc(F)cc3F)n2)c1` [Example 10, 4-(2,4-Difluorophenyl)-5-fluoro-N-{3-fluoro-5-[(methylsulfonyl)methyl]phenyl}pyrimidin-2-amine], the IC50 in the experiment with HeLa cells was found to be 3000 nM; against CDK9/CycT1, 2280 nM.

Take `CS(=O)(=O)Cc1cccc(Nc2ncc(F)c(-c3ccc(F)cc3F)n2)c1` [Example 5, 4-(2,4-Difluorophenyl)-5-fluoro-N-{3-[(methylsulfonyl)methyl]phenyl}pyrimidin-2-amine]: the IC50 at CDK9/CycT1 was 858 nM.

Consider `CCCS(=O)(=O)Cc1cccc(Nc2ncc(F)c(-c3ccc(F)cc3F)n2)c1` [Example 8, 4-(2,4-difluorophenyl)-5-fluoro-N-{3-[(propylsulfonyl)methyl]phenyl}pyrimidin-2-amine], for which the IC50 was determined as 3000 nM in the experiment on HeLa cells and 904 nM against CDK9/CycT1.

`CS(=O)(=O)Cc1cc(Nc2ncc(F)c(-c3ccc(F)cc3F)n2)cc(S(F)(F)(F)(F)F)c1` [Example 6, 4-(2,4-Difluorophenyl)-5-fluoro-N-{3-[(methylsulfonyl)methyl]-5-(pentafluoro-λ^6-sulfanyl)phenyl}pyrimidin-2-amine]: the IC50 in the experiment with B16F10 cells was 951 nM; with Caco-2 cells, 382 nM; with DU145 cells it was 352 nM; in the experiment on HeLa cells it was 617 nM; with HeLa-MaTu-ADR cells it was 220 nM; in the experiment with NCI-H460 cells, 386 nM. On CDK9/CycT1, the IC50 amounted to 99 nM.
